{"source": "paper PMC7407672", "about": "(Cells, 2020)", "key": {"GAL4(DBD)-mouse PXR(LBD)": {"biological_target": "T1, GAL4(DBD)-mouse PXR(LBD) (Mus musculus, UniProt O54915)", "T1 construct": "together with the pSG5-GAL4(DBD)-h/m/zfPXR(LBD)-puro plasmids; expressed in transfected cells; host or cells: HeLa (HG5LN)", "T1 sequence (O54915 143-430 limits assumed)": "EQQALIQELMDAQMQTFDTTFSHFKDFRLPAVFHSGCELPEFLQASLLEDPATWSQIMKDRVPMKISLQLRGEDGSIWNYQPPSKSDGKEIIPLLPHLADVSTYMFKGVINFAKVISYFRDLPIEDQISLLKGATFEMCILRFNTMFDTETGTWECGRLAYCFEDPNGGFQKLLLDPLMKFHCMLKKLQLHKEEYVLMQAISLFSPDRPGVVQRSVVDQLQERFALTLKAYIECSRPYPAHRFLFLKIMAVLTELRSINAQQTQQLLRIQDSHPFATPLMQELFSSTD", "experiment": "luciferase reporter transactivation in HG5LN GAL4-mPXR cells", "format": "cell-based", "settings": "dabrafenib, SR12813, PCN 3 μM; clotrimazol 1 μM", "description": "(§1) The different reporter cell lines used in this study are summarized in Supplementary Table S1. HG5LN GAL4-m/zfPXR cells were obtained as previously reported for HG5LN GAL4-hPXR cells. Briefly, Hela cells were stably transfected with the GAL4RE5-βGlob-Luc-SVNeo plasmid alone or together with the pSG5-GAL4(DBD)-h/m/zfPXR(LBD)-puro plasmids leading to the HG5LN and HG5LN-h/m/zfPXR cell lines, respectively. HG5LN GAL4-hCAR and GAL4-hCAR-APYLT cells were obtained in the same way."}, "LS174T-hPXR cells [1]": {"test_system": "LS174T-hPXR cells", "experiment": "LS174T-hPXR proliferation assay (P-screen) after SPA70 pretreatment", "format": "cell-based, human", "settings": "pretreated with SPA70 100 nM; 7 days; read-out: potency (EC50) on proliferation", "experimental": "(§2) We developed a new proliferation test that we called the P-screen to measure the effects of compounds with PXR activity on the growth of LS174T-hPXR cells. This test uses the same principle as that for E-screen that was used for measuring the effects of estrogens on the proliferation of MCF-7 breast cancer cells. […] The medium was then removed, and cells were treated with increasing concentrations of the different compounds for 7 days. Medium was removed, and 0.1 mL of MTT solution (0.5 mg/mL) was added to each well. The MTT-containing medium was removed 4 h after incubation, and DMSO was added to each well. After shaking, the plates were read in absorbance at 540 nm. Results were expressed as percentage of proliferation with respect to the hormone-free control (100%). Data were obtained by dose–response curves plotted as percentage of proliferation as a function of concentrations."}, "[2]": {"test_system": "hPXR target genes (CYP3A4, ABCG2, FGF19) in LS174T-hPXR cells", "experiment": "RT-qPCR of hPXR target genes in LS174T-hPXR cells", "format": "cell-based, human", "experimental": "(§3) Total RNA was isolated and purified using “Zymo Research—Quick RNA mini prep” kit for LS174T-hPXR cells and using Trizol reagent (Thermo Fisher Scientific, Illkirch-Graffenstaden, France) for primary human hepatocytes and HepaRG according to the manufacturer’s protocol. The concentration and the purity of isolated RNA were measured using a spectrophotometer NanoVue (GE health care life sciences, Velizy-Villacoublay, France). Reverse transcription was performed with the qScript cDNA SuperMix (VWR, Fontenay-sous-Bois, France) for LS174-hPXR and HepaRG cells and using a random hexaprimer and the MMLV Reverse Transcriptase Kit (Life Technologies) for primary human hepatocytes. Quantitative polymerase chain reactions were performed using SYBR green (Qiagen, Les Ulis, France) and specific primers (Supplementary Table S2) with the LightCycler®-480 real-time PCR system (Roche Diagnostics, Meylan, France). The relative amount of RNA was calculated with the 2^ΔΔCT method, and gene expression was normalized using GAPDH or RPLP0. In Figure 5AB, the level of expression was compared with the mean level of the corresponding gene expression in DMSO-treated cells and expressed as n-fold ratio."}, "[3]": {"test_system": "CYP3A4 and CYP2B6 genes in primary human hepatocytes", "experiment": "RT-qPCR of hPXR target genes in primary human hepatocytes", "format": "cell-based", "settings": "three donors, 48 h", "description": "Liver samples were obtained from the Biologic Resource Center of Montpellier University Hospital (CRB-CHUM; http://www.chumontpellier.fr; Biobank ID: BB-0033-00031), and this study benefitted from the expertise of Dr. Benjamin Rivière (hepatogastroenterology sample collection) and Dr. Edouard Tuaillon (CRB-CHUM manager). Samples were obtained from livers of adult patients who underwent liver resections for medical reasons unrelated to our research program, or from anonymous donors when the liver was considered unsuitable for organ transplantation. The use of human specimens for scientific purposes was approved by the French National Ethics Committee. Written or oral informed consent was obtained from each patient or family prior to surgery. The clinical characteristics of the liver donors are presented in Supplementary Table S2. Hepatocytes were isolated by using a two-step perfusion protocol and cultured as described previously.\nas §3"}, "[4]": {"test_system": "PXR (GAL4(DBD)-zebrafish PXR(LBD))", "experiment": "luciferase reporter transactivation in HG5LN GAL4-zfPXR cells", "format": "cell-based", "settings": "read-out: activation of zebrafish PXR LBD (luciferase), fold induction", "description": "as §1"}, "LS174T-hPXR cells [5]": {"test_system": "LS174T-hPXR cells", "experiment": "MTT proliferation of LS174T-hPXR cells", "format": "cell-based, human", "experimental": "as §2"}}, "data": [{"compound": "CC(=O)[C@H]1[C@H](C#N)C[C@H]2[C@@H]3CC=C4C[C@@H](O)CC[C@]4(C)[C@H]3CC[C@@]21C", "note": "[PCN, Pregnenolone 16 alpha-carbonitrile]", "values": [{"measurement": "activation of mouse PXR LBD (luciferase)", "setting": "GAL4(DBD)-mouse PXR(LBD)", "result": "Specific agonist effects"}]}, {"compound": "CCOP(=O)(OCC)C(=Cc1cc(C(C)(C)C)c(O)c(C(C)(C)C)c1)P(=O)(OCC)OCC", "note": "[SR12813]", "values": [{"measurement": "EC50", "setting": "LS174T-hPXR cells [1]", "result": 38, "unit": "nM"}, {"measurement": "ABCG2 expression increase", "setting": "[2]; 24 h", "result": 12, "unit": "fold"}, {"measurement": "CYP3A4 expression increase", "setting": "[2]; 24 h", "result": 190, "unit": "fold"}, {"measurement": "concentration of maximal induction of CYP3A4 expression", "setting": "[2]; 24 h", "result": 1, "unit": "µM"}, {"measurement": "FGF19 expression induction", "setting": "[2]; highest concentration used (3 µM)", "result": 4, "unit": "fold"}, {"measurement": "induction of CYP2B6 gene expression", "setting": "[3]", "result": "significantly induce"}, {"measurement": "induction of CYP3A4 gene expression", "setting": "[3]", "result": "significantly induce"}]}, {"compound": "Clc1ccccc1C(c1ccccc1)(c1ccccc1)n1ccnc1", "note": "[clotrimazol]", "values": [{"measurement": "fold induction at 16 h, 1 µM", "setting": "[4]", "result": 5}]}, {"compound": "SPA70", "values": [{"measurement": "effect on agonist-activated proliferation", "setting": "LS174T-hPXR cells [5]; SPA70 3 μM with 0.3 μM SR12813 or 0.3 μM dabrafenib", "result": "abrogated"}, {"measurement": "effect on basal proliferation", "setting": "LS174T-hPXR cells [5]; SPA70 3 μM, 7 days", "result": "significantly reduced"}]}]}
